Source: the CheMixHub drug solubility set

Assay: xn = mol fraction of the nth substance listed, in the solute-free solvent

NC(N)=C([N+](=O)[O-])[N+](=O)[O-] + CS(C)=O + O=C1CCCC1
solubility (g/100 g solution)
Settings | 293.15 K | 298.15 K | 303.15 K | 308.15 K | 313.15 K | 318.15 K | 323.15 K | 328.15 K | 333.15 K
x2 = 0.1177 | 3.67 | 3.8 | 4.06 | 4.31 | 4.57 | 4.86 | 5.16 | 5.5 | 5.84
x2 = 0.2308 | 7.45 | 7.83 | 8.19 | 8.56 | 8.97 | 9.37 | 9.83 | 10.2 | 10.7
x2 = 0.3397 | 11.5 | 12.1 | 12.6 | 13 | 13.5 | 14 | 14.5 | 15 | 15.6
x2 = 0.4445 | 15.2 | 15.8 | 16.2 | 16.6 | 17.1 | 17.6 | 18.3 | 18.9 | 19.5
x2 = 0.5455 | 18.5 | 19.2 | 19.7 | 20.1 | 20.6 | 21.1 | 21.7 | 22.3 | 22.9
x2 = 0.6429 | 21.3 | 21.9 | 22.4 | 22.9 | 23.4 | 24 | 24.6 | 25.1 | 25.8
x2 = 0.7369 | 23.8 | 24.6 | 25 | 25.5 | 26.1 | 26.6 | 27.2 | 27.8 | 28.5
x2 = 0.8276 | 26 | 26.5 | 27 | 27.4 | 28.1 | 28.6 | 29.2 | 29.8 | 30.4
x2 = 0.9153 | 27.7 | 28.5 | 29 | 29.4 | 30 | 30.5 | 31.1 | 31.8 | 32.4

Nc1ncn(C2OC(CO)C(O)C2O)c(=O)n1 (stereo not given) + O + CC(C)O
solubility (g/100 g solution)
Settings | 278.15 K | 283.15 K | 288.15 K | 293.15 K | 298.15 K | 303.15 K | 308.15 K | 313.15 K | 318.15 K
x2 = 0.4546 | 0.0657 | 0.0837 | 0.104 | 0.126 | 0.152 | 0.187 | 0.227 | 0.276 | 0.336
x2 = 0.6897 | 0.152 | 0.192 | 0.238 | 0.293 | 0.351 | 0.421 | 0.502 | 0.601 | 0.714
x2 = 0.8334 | 0.275 | 0.349 | 0.429 | 0.516 | 0.613 | 0.717 | 0.851 | 0.997 | 1.17
x2 = 0.9303 | 0.455 | 0.57 | 0.693 | 0.836 | 0.979 | 1.14 | 1.31 | 1.52 | 1.75

Nc1ncn(C2OC(CO)C(O)C2O)c(=O)n1 (stereo not given) + O + CCCO
solubility (g/100 g solution)
Settings | 278.15 K | 283.15 K | 288.15 K | 293.15 K | 298.15 K | 303.15 K | 308.15 K | 313.15 K | 318.15 K
x2 = 0.4546 | 0.0722 | 0.0869 | 0.104 | 0.124 | 0.149 | 0.177 | 0.208 | 0.241 | 0.279
x2 = 0.6897 | 0.165 | 0.201 | 0.249 | 0.302 | 0.359 | 0.424 | 0.49 | 0.562 | 0.635
x2 = 0.8334 | 0.298 | 0.368 | 0.448 | 0.54 | 0.637 | 0.744 | 0.852 | 0.965 | 1.07
x2 = 0.9303 | 0.488 | 0.59 | 0.72 | 0.861 | 1.01 | 1.17 | 1.33 | 1.49 | 1.66

Nc1ncn(C2OC(CO)C(O)C2O)c(=O)n1 (stereo not given) + O + CCO
solubility (g/100 g solution)
Settings | 278.15 K | 283.15 K | 288.15 K | 293.15 K | 298.15 K | 303.15 K | 308.15 K | 313.15 K | 318.15 K
x2 = 0.3899 | 0.0889 | 0.101 | 0.115 | 0.133 | 0.153 | 0.177 | 0.206 | 0.238 | 0.275
x2 = 0.6302 | 0.186 | 0.217 | 0.255 | 0.298 | 0.349 | 0.406 | 0.469 | 0.538 | 0.618
x2 = 0.7932 | 0.302 | 0.369 | 0.443 | 0.524 | 0.614 | 0.709 | 0.813 | 0.924 | 1.05
x2 = 0.9109 | 0.498 | 0.588 | 0.704 | 0.836 | 0.976 | 1.12 | 1.28 | 1.46 | 1.65

Nc1ncn(C2OC(CO)C(O)C2O)c(=O)n1 (stereo not given) + O + CO
solubility (g/100 g solution)
Settings | 278.15 K | 283.15 K | 288.15 K | 293.15 K | 298.15 K | 303.15 K | 308.15 K | 313.15 K | 318.15 K
x2 = 0.3077 | 0.0966 | 0.113 | 0.129 | 0.148 | 0.169 | 0.194 | 0.228 | 0.273 | 0.324
x2 = 0.5424 | 0.198 | 0.229 | 0.265 | 0.307 | 0.359 | 0.419 | 0.491 | 0.575 | 0.673
x2 = 0.7273 | 0.335 | 0.397 | 0.463 | 0.542 | 0.632 | 0.742 | 0.869 | 1 | 1.14
x2 = 0.8767 | 0.521 | 0.634 | 0.758 | 0.888 | 1.02 | 1.17 | 1.34 | 1.52 | 1.71

Nc1cc(-c2ccncc2)c[nH]c1=O + OCCO + O
solubility (g/100 g solution)
Settings | 278.15 K | 283.15 K | 288.15 K | 293.15 K | 298.15 K | 303.15 K | 308.15 K | 313.15 K | 318.15 K | 323.15 K
x2 = 0.03125 | 0.000969 | 0.00114 | 0.00136 | 0.0016 | 0.00188 | 0.00216 | 0.00248 | 0.00283 | 0.00323 | 0.00367
x2 = 0.06767 | 0.00136 | 0.0016 | 0.00191 | 0.00224 | 0.00262 | 0.00301 | 0.00345 | 0.00393 | 0.00447 | 0.00508
x2 = 0.1107 | 0.00187 | 0.00221 | 0.00263 | 0.0031 | 0.00358 | 0.00411 | 0.00469 | 0.00542 | 0.00618 | 0.00703
x2 = 0.1622 | 0.00264 | 0.00312 | 0.00368 | 0.00432 | 0.00505 | 0.00577 | 0.00658 | 0.00746 | 0.00845 | 0.00955
x2 = 0.225 | 0.0034 | 0.00407 | 0.00476 | 0.00562 | 0.00649 | 0.00751 | 0.00852 | 0.00976 | 0.0111 | 0.0126
x2 = 0.3034 | 0.00444 | 0.00524 | 0.00616 | 0.00725 | 0.00846 | 0.00962 | 0.0109 | 0.0124 | 0.014 | 0.0158
x2 = 0.4038 | 0.00528 | 0.00637 | 0.00751 | 0.00882 | 0.0103 | 0.0117 | 0.0131 | 0.0148 | 0.0168 | 0.0189
x2 = 0.5373 | 0.00588 | 0.00697 | 0.00817 | 0.00966 | 0.0113 | 0.0128 | 0.0146 | 0.0165 | 0.0186 | 0.021
x2 = 0.7232 | 0.00648 | 0.00764 | 0.00919 | 0.0108 | 0.0123 | 0.014 | 0.016 | 0.0178 | 0.0199 | 0.0224

Nc1ncc(Br)nc1Br + OCCO + O
solubility (g/100 g solution)
Settings | 278.15 K | 283.15 K | 288.15 K | 293.15 K | 298.15 K | 303.15 K | 308.15 K | 313.15 K | 318.15 K | 323.15 K
x2 = 0.03125 | 0.00637 | 0.0078 | 0.00922 | 0.0109 | 0.0127 | 0.0144 | 0.0164 | 0.0186 | 0.0208 | 0.0231
x2 = 0.06767 | 0.0106 | 0.0129 | 0.0152 | 0.018 | 0.0209 | 0.0235 | 0.0267 | 0.0302 | 0.0336 | 0.0373
x2 = 0.1107 | 0.0164 | 0.02 | 0.0235 | 0.0276 | 0.032 | 0.036 | 0.0408 | 0.0459 | 0.0511 | 0.0566
x2 = 0.1622 | 0.0238 | 0.0288 | 0.0338 | 0.0398 | 0.046 | 0.0518 | 0.0585 | 0.0657 | 0.0731 | 0.0809
x2 = 0.225 | 0.0307 | 0.0375 | 0.0446 | 0.0526 | 0.0606 | 0.0684 | 0.0774 | 0.0866 | 0.0965 | 0.108
x2 = 0.3034 | 0.0394 | 0.0471 | 0.0562 | 0.0663 | 0.0766 | 0.0874 | 0.0983 | 0.111 | 0.124 | 0.138
x2 = 0.4038 | 0.0467 | 0.0558 | 0.0667 | 0.0788 | 0.0911 | 0.104 | 0.118 | 0.133 | 0.148 | 0.164
x2 = 0.5373 | 0.0508 | 0.0614 | 0.0739 | 0.0875 | 0.103 | 0.116 | 0.132 | 0.148 | 0.165 | 0.184
x2 = 0.7232 | 0.0528 | 0.0647 | 0.077 | 0.0912 | 0.106 | 0.12 | 0.137 | 0.154 | 0.173 | 0.194

c1ccc2c(c1)CCc1ccccc1N2 + OCCO + O
solubility (g/100 g solution)
Settings | 283.15 K | 288.15 K | 293.15 K | 298.15 K | 303.15 K | 308.15 K | 313.15 K | 318.15 K | 323.15 K | 328.15 K
x2 = 0.03125 | 0.0117 | 0.0166 | 0.0228 | 0.032 | 0.0373 | 0.0524 | 0.0651 | 0.088 | 0.117 | 0.153
x2 = 0.06775 | 0.0425 | 0.0584 | 0.0728 | 0.0999 | 0.124 | 0.165 | 0.207 | 0.265 | 0.333 | 0.406
x2 = 0.1107 | 0.0709 | 0.0954 | 0.123 | 0.162 | 0.202 | 0.258 | 0.32 | 0.397 | 0.49 | 0.598
x2 = 0.1615 | 0.0799 | 0.106 | 0.135 | 0.174 | 0.214 | 0.272 | 0.331 | 0.404 | 0.491 | 0.593
x2 = 0.2258 | 0.0897 | 0.118 | 0.144 | 0.179 | 0.221 | 0.265 | 0.32 | 0.381 | 0.455 | 0.558
x2 = 0.3035 | 0.0971 | 0.123 | 0.148 | 0.178 | 0.215 | 0.256 | 0.304 | 0.359 | 0.421 | 0.515
x2 = 0.4027 | 0.107 | 0.131 | 0.154 | 0.184 | 0.223 | 0.261 | 0.313 | 0.359 | 0.402 | 0.47
x2 = 0.5389 | 0.114 | 0.14 | 0.166 | 0.197 | 0.232 | 0.272 | 0.308 | 0.353 | 0.401 | 0.458
x2 = 0.7239 | 0.117 | 0.139 | 0.167 | 0.197 | 0.231 | 0.263 | 0.296 | 0.329 | 0.366 | 0.411
